Source: the supplement of paper PMC11451515

Columns and labels:
Test in all cases: AUC of viability dose-response curve (% viability x log10 dose units); higher = less sensitive
Conditions in all cases: 48 h
[1] = system: P12-Ichikawa
Method in brief: (§1)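 Medium-adapted leukemia cells in 1536-well plates, at 500 or 1000 cells/well, were incubated for 48 h at 37°C with library compounds in DMSO at 11 threefold doses from 47 μM to 0.79 nM. CellTiter-Glo One luminescence normalised per plate to DMSO and cell-free wells was fitted with a four-parameter log-logistic model over log10 doses. Area under the curve was integrated from this fit by trapezoidal rule, with curves beyond full viability scaled and failed quality-control curves removed.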

[2] = system: NOMO1
Method in brief: as §1

[3] = system: SEM cells
Method in brief: as §1

[4] = RPMI 5 mM glucose + 10% dialyzed FBS

SMILES | AUC of viability dose-response curve ([1]; HPLM + 10% dialyzed FBS) | AUC of viability dose-response curve ([1]; RPMI 5 mM glucose + 10% FBS) | AUC of viability dose-response curve [1, 4] | AUC of viability dose-response curve ([2]; HPLM + 10% dialyzed FBS) | AUC of viability dose-response curve ([2]; RPMI 5 mM glucose + 10% FBS) | AUC of viability dose-response curve [2, 4] | AUC of viability dose-response curve ([3]; HPLM + 10% dialyzed FBS) | AUC of viability dose-response curve ([3]; RPMI 5 mM glucose + 10% FBS) | AUC of viability dose-response curve [3, 4]
CN1[C@@H]2CC(O)C[C@H]1[C@@H]1O[C@@H]12 (stereo partly drawn) | 455 | 448 | 454 | 451 | 453 | 451 |  |  | 
COc1cc(N2CCC(N3CCN(C)CC3)CC2)ccc1Nc1ncnc(Nc2ccccc2[S+](=O)([O-])C(C)C)n1 | 447 | 458 | 451 |  |  |  | 361 | 354 | 400
CN(C)c1nc(N(C)C)nc(N(C)C)n1 | 435 | 436 | 441 | 440 | 454 | 454 | 465 | 453 | 461
CN1C(=O)COc2c(C(=O)NC3CN4CCC3CC4)cc(Cl)cc21 (stereo not drawn) |  |  |  | 448 | 464 | 439 | 457 | 453 | 471
C[C@H]1[C@@H](CC(C[C@H]2O[C@@H]3O[C@]4(C)CC[C@H]5[C@H](C)CC[C@@H]([C@H]2C)[C@@]35OO4)C[S+](=O)([O-])c2ccc(COC(=O)N(C)C)cc2)O[C@@H]2O[C@]3(C)CC[C@H]4[C@H](C)CC[C@@H]1[C@@]24OO3 | 351 | 348 | 341 | 301 | 329 | 299 | 297 | 284 | 284
N=C(N)c1ccc(OCCCCCOc2ccc(C(=N)N)cc2)cc1 | 467 | 456 | 458 | 441 | 447 | 441 | 457 | 463 | 465
COC1=CC=C(C=C1)C/2=C/OC3=CC(=CC=C3C2=O)O | 451 | 461 | 456 | 422 | 451 | 437 | 445 | 458 | 430
CCCCCCCCCCCCCCCC(=O)OC[C@@H](NC(=O)C(Cl)Cl)[C@H](O)c1ccc([N+](=O)[O-])cc1 | 470 | 429 | 461 | 450 | 461 | 445 | 464 | 468 | 455
CCCCc1oc2ccc(NS(C)(=O)=O)cc2c1C(=O)c1ccc(OCCCN(CCCC)CCCC)cc1 | 414 | 409 | 413 | 367 | 332 | 361 |  |  | 
OC1=C(C=CC=C1)C2=CC=C(C=C2)C3=CSC4=C3C(=C(/C#N)C(=O)N4)/O | 448 | 456 | 453 | 462 | 449 | 453 | 453 | 434 | 457
COc1cc2ncnc(Nc3ccc(F)c(Cl)c3)c2cc1OCCCN1CCOCC1 | 446 | 446 | 463 | 425 | 452 | 443 | 408 | 419 | 425
C[C@@]12OC(=O)[C@@]1(NC(=O)[C@@H]2CCCl)[C@@H](O)[C@H]\3CCC\C=C3 | 256 | 253 | 247 | 243 | 254 | 254 | 183 | 182 | 177
Cc1cnc(Nc2ccc(OCCN3CCCC3)cc2)nc1Nc1cccc([S+](=O)([O-])NC(C)(C)C)c1 | 469 | 471 | 468 | 477 | 470 | 473 | 427 | 458 | 447
O=C(c1ccc(F)cc1)C1CCN(CCn2c(=O)[nH]c3ccccc3c2=O)CC1 | 455 | 448 | 451 | 469 | 457 | 453 | 469 | 474 | 466
CO[C@@H]1[C@H](N(C)C(=O)c2ccccc2)C[C@H]2O[C@]1(C)n1c3ccccc3c3c4c(c5c6ccccc6n2c5c31)C(=O)NC4 | 373 | 380 | 386 | 415 | 424 | 412 | 313 | 308 | 305
Cn1c(=O)c2c(ncn2CC(O)CO)n(C)c1=O (stereo not drawn) | 435 | 449 | 460 | 470 | 462 | 455 | 440 | 469 | 421
CC(C)(O)CNc1nc(Nc2ccnc(C(F)(F)F)c2)nc(-c2cccc(C(F)(F)F)n2)n1 | 371 | 369 | 381 | 442 | 409 | 418 | 408 | 363 | 382
c1ccc2c(-c3cnn4cc(-c5ccc(N6CCNCC6)cc5)cnc34)ccnc2c1 |  |  |  |  |  |  | 355 | 379 | 394
O=P(O)(O)C(O)(Cc1cccnc1)P(=O)(O)[O][Na] (stereo not drawn) |  |  |  |  |  |  | 411 | 409 | 406
COc1cc(/C=C/C(=O)CC(=O)/C=C/c2ccc(O)c(OC)c2)ccc1O | 416 | 431 | 433 | 419 | 440 | 441 | 406 | 409 | 417
CCOP(=O)(OCC)C(C)NC(=O)N(CCCl)N=O (stereo not drawn) | 431 | 453 | 436 | 441 | 402 | 466 | 470 | 447 | 461
COc1ccc(-c2c(-c3ccc(O)cc3O)n[nH]c2C)cc1 | 465 | 464 | 468 | 449 | 467 | 466 | 428 | 405 | 431
COc1ccc(-c2nc3cc(C4=NNC(=O)CC4C)ccc3[nH]2)cc1 (stereo not drawn) | 473 | 465 | 470 | 445 | 459 | 461 | 467 | 462 | 465
COc1ccc2cc(-c3[nH]c(-c4ccc([S+](C)[O-])cc4)nc3-c3ccncc3)ccc2c1 (stereo not drawn) | 472 | 468 | 464 | 461 | 390 | 435 | 451 | 463 | 460

SMILES | AUC of viability dose-response curve ([1]; HPLM + 10% dialyzed FBS) | AUC of viability dose-response curve ([1]; RPMI 5 mM glucose + 10% FBS) | AUC of viability dose-response curve [1, 4] | AUC of viability dose-response curve ([2]; HPLM + 10% dialyzed FBS) | AUC of viability dose-response curve ([2]; RPMI 5 mM glucose + 10% FBS) | AUC of viability dose-response curve [2, 4] | AUC of viability dose-response curve ([3]; HPLM + 10% dialyzed FBS) | AUC of viability dose-response curve ([3]; RPMI 5 mM glucose + 10% FBS) | AUC of viability dose-response curve [3, 4]
Cn1cc(-c2ccncc2)c(-c2ccc(OCc3ccc4ccccc4n3)cc2)n1 | 449 | 433 | 440 | 454 | 451 | 463 | 469 | 445 | 465
CC1(C)O[C@H]2CC(=O)OC[C@]23[C@H]2CC[C@@]4(C)[C@H](c5ccoc5)OC(=O)[C@H]5O[C@]54[C@]2(C)C(=O)C[C@@H]13 | 468 | 446 | 469 | 462 | 465 | 461 | 463 | 444 | 438
C=C1C[C@@]2(O)O[C@@]3(C[C@H]2C(C)C)[C@@H](C)CC[C@@H]13 | 469 | 460 | 449 | 466 | 451 | 465 |  |  | 
CC1=C2N=C([NH]C2=CC(=C1)N3CCOCC3)\C4=C(NC[C@@H](O)C5=CC=CC(=C5)Cl)\C=C/NC4=O | 469 | 469 | 465 | 385 | 411 | 378 |  |  | 
NC12CC3CC(CC(C3)C1)C2 | 466 | 466 | 476 | 448 | 470 | 461 | 435 | 401 | 371
c1cc(-c2sc(-c3ccncc3)c(-c3ccncc3)c2-c2ccncc2)ccn1 | 472 | 466 | 471 | 472 | 439 | 464 | 377 | 350 | 365
COc1ccc(CCC(=O)Nc2nc3ccc(Cl)cc3s2)cc1OC | 466 | 472 | 462 | 454 | 458 | 455 | 463 | 461 | 472
CC(C)[C@@H](N(CCCN)C(=O)C1=CC=C(C)C=C1)C/2=C(\CC3=CC=CC=C3)C(=O)C4=C(O2)C=C(Cl)C=C4 |  |  |  |  |  |  | 116 | 96.8 | 99.8
Cl.Cl.Fc1ccc(C(OCCN2CCN(CCCc3ccccc3)CC2)c2ccc(F)cc2)cc1 | 470 | 467 | 465 | 438 | 457 | 446 | 460 | 458 | 458
c1cc(OCCN2CCCCC2)cc(-c2n[nH]c3ccc(-c4nc[nH]n4)cc23)c1 |  |  |  | 467 | 463 | 468 | 412 | 441 | 413
CC1OC(OC/2=C(/OC3=C(C(=CC(=C3)O)O)C2=O)C4=CC=C(O)C=C4)C(O)C(OC(C)=O)C1OC(C)=O (stereo not drawn) | 454 | 455 | 460 | 440 | 430 | 466 | 463 | 367 | 465
COc1ccc2cccc(CCNC(C)=O)c2c1 | 470 | 468 | 460 | 434 | 415 | 440 | 451 | 453 | 452
CCCn1c(=O)c2[nH]c(C34CC5CC3C[C@@H](C5)C4)nc2n(CCC)c1=O | 462 | 410 | 460 | 454 | 442 | 463 | 477 | 416 | 457
c1ccc2c(Oc3nc(Nc4ccc(N5CCOCC5)cc4)c4ncn(C5CCCCC5)c4n3)cccc2c1 | 451 | 462 | 466 | 439 | 440 | 466 | 462 | 452 | 458
CNC(=O)c1cc(Oc2ccc(NC(=O)Nc3cc(C(C)(C)C)nn3-c3ccc4ncccc4c3)c(F)c2)ccn1 | 464 | 465 | 469 | 433 | 452 | 450 | 375 | 359 | 335
O=C1c2cccc(O)c2C(=O)c2c(O)cc(CO)cc21 | 452 | 450 | 431 | 417 | 424 | 451 | 474 | 451 | 422
COc1cc2nc(-c3ccc(N4CCN(C)CC4)cc3)nc(NCCN3CCOCC3)c2cc1OC | 340 | 350 | 345 | 300 | 336 | 302 | 248 | 290 | 271
O=C(NC1CC1)c1cccc(-c2ccc3c(NC(=O)C4CC4)n[nH]c3c2)c1 | 418 | 419 | 426 | 450 | 448 | 451 | 430 | 425 | 422
N/C(=N\C(=O)c1nc(Cl)c(N)nc1N)NCc1ccccc1 | 465 | 449 | 436 | 448 | 405 | 447 | 449 | 407 | 436
Cc1ccccc1C(C(=O)NC1CCCCC1)N(C(=O)CNc1ccc(C#N)cc1)c1cccc(F)c1 (stereo not drawn) | 453 | 476 | 467 |  |  |  | 471 | 454 | 470
CN(C(=O)c1ccc(F)cc1C(F)(F)F)C1CCN(c2nnc(-c3ccnn3C)c3ccccc23)CC1 | 387 | 365 | 355 |  |  |  | 331 | 373 | 326
C[Se]CCC(N)C(=O)O (stereo not drawn) | 407 | 390 | 388 | 406 | 406 | 394 |  |  | 
CC1(C)OC/2=C(\[C@H](NCC3=CC=CC=C3)[C@@H]1O)C(=O)C4=CC=CC=C4C2=O | 424 | 397 | 416 |  |  |  | 417 | 363 | 413
CCC(CC)[C@H](NC(C)=O)[C@@H]1[C@H](O)[C@@H](C(=O)O)C[C@H]1NC(=N)N |  |  |  | 404 | 407 | 395 | 335 | 394 | 365
